Source: US20010011143A1, “Process for preparing phenoxyphenylsulfonyl halides” (priority 1998, published 2001)

melting point: 78 to 83 °C
SMILES: O=S(=O)(Oc1ccc(F)cc1)c1ccc(Oc2ccc(F)cc2)cc1 [Example 1, 4-(4-Fluorophenoxy)benzenesulfonic Acid 4-Fluorophenyl Ester]
